Test results as given in patent US20170076040A1, “SINGLE-CELL ANALYSIS AS A SENSITIVE AND SPECIFIC METHOD FOR EARLY CANCER DETECTION” (THE BOARD OF REGENTS OF THE UNIVERSITY OF TEXAS SYSTEM, priority 2014, published 2017).

How the values were obtained:
Type in all cases: cell-based
LNCaP cells [1] = test: RT-qPCR expression of bimodal genes in LNCaP cells with and without R1881; details: R1881 1 nM, relative to untreated cells, period of 36 hrs
Method: (§1) LNCaP and PC3 cells routinely grown in the laboratory were transfected with SMARTpool siRNAs specifically targeting TGFBR2 and GSK3B, respectively, according to the manufacturer protocol (ThermoFisher). Unspecific scrambled siRNA was used as a negative control. Total RNA were prepared from transfected and control cells or from cells treated with R1881 (1 nM), a synthetic androgen agonist. Reverse transcription was performed using the SuperScript III kit (Invitrogen) on a Veriti 96-well Thermocycler (Applied Biosystems). Relative expression values of genes were shown as the average fold changes (2−ΔΔCt) from three individual experiments using UBB as an internal control and the untreated expression designated as 1.

PC3 cells [2] = test: RT-qPCR expression of bimodal genes in PC3 cells with and without R1881; details: R1881 1 nM, androgen-independent PC3 cells
Method: as §1

LNCaP cells [3] = test: Cell proliferation, migration, and invasion assays (IncuCyte ZOOM), LNCaP; details: R1881 1 nM (low-dose)
Method: (§2) Cells were seeded in triplicate wells of a 96-well plate, and every three hours four independent images were taken per well and quantified for confluence percentage using the IncuCyte ZOOM system. To eliminate variations of cell size and seeding densities, relative cell densities at all time points' values were normalized to the initial time point's average confluence.
(§3) Cell monolayers were seeded to optimized confluent levels in a 96-well ImageLock Plate (Essen BioSciences). The 96-well WoundMaker created equal scratches in every well simultaneously for cell migration and invasion analysis (Essen BioSciences). For invasion assays, BD Matrigel™ Basement Membrane Matrix (BD Biosciences) was used for coating the ImageLock plates, creating a thick layer above the scratched monolayer, 0.1 and 4.0 mg/ml respectively. The IncuCyte ZOOM system's scan mode set to scratch wound and wide mode and captured 1 image every 3 hours. Migration and invasion were analyzed using the relative wound density percent (RWD %) metric.

PC3 cells [4] = test: Cell proliferation, migration, and invasion assays (IncuCyte ZOOM), PC3; details: R1881 1 nM, androgen-independent PC3 cells
Method: as §2, §3

Q: Which “expression of CDKN1C” value (LNCaP cells [1]) does the source give for `C[C@]1(O)CC[C@H]2[C@@H]3CCC4=CC(=O)CCC4=C3C=C[C@@]21C` [R1881] here?
A: further repressed

Q: What about the “expression of CXCL6” value (LNCaP cells [1]) of the same compound?
A: further repressed

Q: And the gene expression patterns (PC3 cells [2])?
A: did not alter

Q: And the cell growth (LNCaP cells [3])?
A: did not cause noticeable changes

Q: What about the invasion (LNCaP cells [3]) of the same compound?
A: did not cause noticeable changes

Q: And the migration (LNCaP cells [3])?
A: did not cause noticeable changes

Q: And the cellular phenotypes (PC3 cells [4])?
A: did not alter
